Laboratory results taken from ChEMBL document CHEMBL2177025, “Chemical proteomics-based analysis of off-target binding profiles for rosiglitazone and pioglitazone: clues for assessing potential for cardiotoxicity” (J Med Chem, 2012).
Each block holds one molecule with its values, some of them ahead of it. Activity calls are given as the source filed them. No cut-off for these calls is given here.

Legend:
[1] = target: Transcription factor SOX-5 (Mus musculus) (UniProt P35710); experiment: Binding affinity to mouse transcription factor SOX-5 after 15 mins by chromatographic analysis
Transcription factor SOX-5 (Mus musculus), sequence (P35710 whole entry): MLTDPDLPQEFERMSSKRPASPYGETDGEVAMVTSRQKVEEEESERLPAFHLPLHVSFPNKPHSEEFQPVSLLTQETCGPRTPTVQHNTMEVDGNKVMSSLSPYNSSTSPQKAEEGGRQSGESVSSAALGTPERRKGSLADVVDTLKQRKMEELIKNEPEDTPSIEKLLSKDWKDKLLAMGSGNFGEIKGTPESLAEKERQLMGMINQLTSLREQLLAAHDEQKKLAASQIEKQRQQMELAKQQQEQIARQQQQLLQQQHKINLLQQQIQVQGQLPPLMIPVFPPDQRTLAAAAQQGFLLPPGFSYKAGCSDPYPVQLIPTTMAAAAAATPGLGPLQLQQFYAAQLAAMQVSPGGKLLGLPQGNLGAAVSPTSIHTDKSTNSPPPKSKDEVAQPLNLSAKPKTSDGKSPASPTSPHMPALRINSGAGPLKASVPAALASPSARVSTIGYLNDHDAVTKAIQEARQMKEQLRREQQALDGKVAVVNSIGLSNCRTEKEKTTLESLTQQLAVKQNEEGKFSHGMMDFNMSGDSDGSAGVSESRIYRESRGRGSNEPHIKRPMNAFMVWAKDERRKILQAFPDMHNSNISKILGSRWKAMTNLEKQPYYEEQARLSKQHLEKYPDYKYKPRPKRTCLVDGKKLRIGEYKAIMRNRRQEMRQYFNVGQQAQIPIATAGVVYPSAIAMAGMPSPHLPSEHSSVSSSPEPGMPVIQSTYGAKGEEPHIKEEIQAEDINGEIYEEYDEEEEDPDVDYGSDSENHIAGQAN

[2] = target: Neuronal acetylcholine receptor subunit alpha-10 (Rattus norvegicus) (UniProt Q9JLB5); experiment: Binding affinity to neuronal acetylcholine receptor subunit alpha-10 in Sprague-Dawley rat heart homogenate after 15 mins by chromatographic analysis; type: tissue-based
Neuronal acetylcholine receptor subunit alpha-10 (Rattus norvegicus), sequence (Q9JLB5 whole entry): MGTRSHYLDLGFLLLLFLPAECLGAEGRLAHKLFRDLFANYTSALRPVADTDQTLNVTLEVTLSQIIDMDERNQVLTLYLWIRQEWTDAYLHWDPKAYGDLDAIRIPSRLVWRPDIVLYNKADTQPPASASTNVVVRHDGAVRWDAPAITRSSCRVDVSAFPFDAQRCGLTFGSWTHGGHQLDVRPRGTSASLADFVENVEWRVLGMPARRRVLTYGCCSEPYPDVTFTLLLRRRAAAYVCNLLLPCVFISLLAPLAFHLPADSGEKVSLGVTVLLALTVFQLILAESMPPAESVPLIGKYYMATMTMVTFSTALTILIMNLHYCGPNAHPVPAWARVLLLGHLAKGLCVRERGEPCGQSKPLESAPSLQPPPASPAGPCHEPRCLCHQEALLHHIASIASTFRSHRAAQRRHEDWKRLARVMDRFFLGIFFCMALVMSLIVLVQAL

[3] = target: Dystonin (Mus musculus) (UniProt Q91ZU6); experiment: Binding affinity to mouse bullous pemphigoid antigen 1 by chromatographic analysis
[4] = target: Voltage-dependent L-type calcium channel subunit alpha-1F (Mus musculus) (UniProt Q9JIS7); experiment: Binding affinity to mouse voltage-dependent L-type calcium channel alpha-1F subunit by chromatographic analysis
Voltage-dependent L-type calcium channel subunit alpha-1F (Mus musculus), sequence (Q9JIS7 whole entry): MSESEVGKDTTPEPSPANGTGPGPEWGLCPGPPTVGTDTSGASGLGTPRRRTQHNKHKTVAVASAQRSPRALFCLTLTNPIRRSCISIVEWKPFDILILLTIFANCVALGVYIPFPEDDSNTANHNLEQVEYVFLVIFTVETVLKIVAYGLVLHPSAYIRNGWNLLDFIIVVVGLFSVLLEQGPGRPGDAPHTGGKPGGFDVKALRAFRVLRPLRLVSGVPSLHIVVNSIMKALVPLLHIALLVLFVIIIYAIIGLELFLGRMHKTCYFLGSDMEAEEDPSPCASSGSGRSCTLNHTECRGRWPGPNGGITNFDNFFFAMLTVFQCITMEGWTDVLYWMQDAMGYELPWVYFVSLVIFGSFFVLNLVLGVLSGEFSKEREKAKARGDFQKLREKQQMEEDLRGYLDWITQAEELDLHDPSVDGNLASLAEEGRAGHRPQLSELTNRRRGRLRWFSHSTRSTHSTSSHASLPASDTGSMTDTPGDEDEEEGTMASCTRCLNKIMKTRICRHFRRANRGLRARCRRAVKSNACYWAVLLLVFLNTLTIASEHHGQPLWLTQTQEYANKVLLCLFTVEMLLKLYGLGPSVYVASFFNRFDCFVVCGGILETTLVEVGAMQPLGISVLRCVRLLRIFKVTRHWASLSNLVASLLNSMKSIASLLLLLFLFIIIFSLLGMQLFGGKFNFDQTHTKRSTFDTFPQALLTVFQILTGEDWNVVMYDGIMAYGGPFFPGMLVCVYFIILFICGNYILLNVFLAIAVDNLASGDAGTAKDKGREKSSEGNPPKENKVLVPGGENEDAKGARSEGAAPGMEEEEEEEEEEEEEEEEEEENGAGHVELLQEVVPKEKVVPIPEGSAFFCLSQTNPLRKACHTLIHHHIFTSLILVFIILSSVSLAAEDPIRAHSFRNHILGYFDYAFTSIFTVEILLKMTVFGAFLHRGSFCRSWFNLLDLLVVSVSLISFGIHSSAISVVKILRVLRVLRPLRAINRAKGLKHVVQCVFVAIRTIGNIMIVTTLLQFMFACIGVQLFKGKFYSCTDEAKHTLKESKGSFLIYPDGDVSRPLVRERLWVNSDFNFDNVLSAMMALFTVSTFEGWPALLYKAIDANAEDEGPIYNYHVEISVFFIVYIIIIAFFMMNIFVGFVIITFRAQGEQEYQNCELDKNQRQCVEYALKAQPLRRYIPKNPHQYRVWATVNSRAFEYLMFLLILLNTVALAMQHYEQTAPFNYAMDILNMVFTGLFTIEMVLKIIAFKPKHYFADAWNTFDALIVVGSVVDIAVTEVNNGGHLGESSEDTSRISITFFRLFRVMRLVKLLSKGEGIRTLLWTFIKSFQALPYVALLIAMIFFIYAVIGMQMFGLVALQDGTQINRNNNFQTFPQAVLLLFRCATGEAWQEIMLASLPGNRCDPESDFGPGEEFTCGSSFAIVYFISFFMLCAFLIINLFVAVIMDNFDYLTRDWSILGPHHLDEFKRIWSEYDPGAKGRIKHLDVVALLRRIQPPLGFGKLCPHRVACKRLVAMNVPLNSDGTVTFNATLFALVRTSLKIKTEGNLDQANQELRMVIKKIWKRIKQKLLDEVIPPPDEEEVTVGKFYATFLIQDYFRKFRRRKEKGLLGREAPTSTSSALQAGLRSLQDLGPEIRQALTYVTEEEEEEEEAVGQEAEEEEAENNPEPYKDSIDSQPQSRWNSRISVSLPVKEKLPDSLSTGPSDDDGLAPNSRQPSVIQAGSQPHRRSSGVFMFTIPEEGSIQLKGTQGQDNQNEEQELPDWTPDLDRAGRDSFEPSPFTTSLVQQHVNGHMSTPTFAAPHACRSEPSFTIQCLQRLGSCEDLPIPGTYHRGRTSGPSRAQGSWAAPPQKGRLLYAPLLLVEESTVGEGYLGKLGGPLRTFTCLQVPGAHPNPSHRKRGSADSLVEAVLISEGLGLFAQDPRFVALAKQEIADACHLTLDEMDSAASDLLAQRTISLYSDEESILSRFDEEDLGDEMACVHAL

[5] = target: H(+)/Cl(-) exchange transporter 6 (Mus musculus) (UniProt O35454); experiment: Binding affinity to mouse chloride channel protein 6 after 15 mins by chromatographic analysis
H(+)/Cl(-) exchange transporter 6 (Mus musculus), sequence (O35454 whole entry): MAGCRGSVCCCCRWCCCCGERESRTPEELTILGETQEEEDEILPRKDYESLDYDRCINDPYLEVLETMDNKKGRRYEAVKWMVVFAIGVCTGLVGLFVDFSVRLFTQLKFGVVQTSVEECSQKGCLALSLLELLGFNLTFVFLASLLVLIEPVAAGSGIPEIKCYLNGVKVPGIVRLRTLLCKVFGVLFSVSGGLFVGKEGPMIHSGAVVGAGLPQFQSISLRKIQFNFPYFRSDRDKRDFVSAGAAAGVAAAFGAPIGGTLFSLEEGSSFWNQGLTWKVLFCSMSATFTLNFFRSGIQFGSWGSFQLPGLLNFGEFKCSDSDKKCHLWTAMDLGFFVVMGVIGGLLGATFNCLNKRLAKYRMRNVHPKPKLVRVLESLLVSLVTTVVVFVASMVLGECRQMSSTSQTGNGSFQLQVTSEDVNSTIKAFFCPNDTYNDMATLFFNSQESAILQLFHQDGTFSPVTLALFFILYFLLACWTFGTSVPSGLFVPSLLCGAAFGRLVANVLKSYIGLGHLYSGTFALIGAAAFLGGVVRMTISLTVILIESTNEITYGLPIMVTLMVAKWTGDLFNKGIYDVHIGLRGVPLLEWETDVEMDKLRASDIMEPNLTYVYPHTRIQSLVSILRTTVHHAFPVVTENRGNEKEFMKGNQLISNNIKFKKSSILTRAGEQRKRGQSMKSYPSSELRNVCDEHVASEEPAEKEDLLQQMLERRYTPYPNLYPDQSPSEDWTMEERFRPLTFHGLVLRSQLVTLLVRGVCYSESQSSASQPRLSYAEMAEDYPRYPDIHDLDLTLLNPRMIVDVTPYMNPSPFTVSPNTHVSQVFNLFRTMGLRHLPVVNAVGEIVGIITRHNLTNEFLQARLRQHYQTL

[6] = target: Cyclic AMP-dependent transcription factor ATF-2 (Mus musculus) (UniProt P16951); experiment: Binding affinity to mouse cyclic AMP-dependent transcription factor ATF-2 by chromatographic analysis
[7] = target: Citrate synthase, mitochondrial (Mus musculus) (UniProt Q9CZU6); experiment: Binding affinity to mouse mitochondrial citrate synthase by chromatographic analysis relative to rosiglitazone
[8] = target: Creatine kinase M-type (Rattus norvegicus) (UniProt P00564); experiment: Binding affinity to creatine kinase M-type in Sprague-Dawley rat heart homogenate after 15 mins by chromatographic analysis relative to rosiglitazone; type: tissue-based
[9] = target: Triosephosphate isomerase (Rattus norvegicus) (UniProt P48500); experiment: Binding affinity to triosephosphate isomerase in Sprague-Dawley rat heart homogenate after 15 mins by chromatographic analysis relative to rosiglitazone; type: tissue-based
[10] = target: Endoplasmic reticulum membrane adapter protein XK (Mus musculus) (UniProt Q9QXY7); experiment: Binding affinity to mouse membrane transport protein XK by chromatographic analysis relative to pioglitazone
Endoplasmic reticulum membrane adapter protein XK (Mus musculus), sequence (Q9QXY7 whole entry): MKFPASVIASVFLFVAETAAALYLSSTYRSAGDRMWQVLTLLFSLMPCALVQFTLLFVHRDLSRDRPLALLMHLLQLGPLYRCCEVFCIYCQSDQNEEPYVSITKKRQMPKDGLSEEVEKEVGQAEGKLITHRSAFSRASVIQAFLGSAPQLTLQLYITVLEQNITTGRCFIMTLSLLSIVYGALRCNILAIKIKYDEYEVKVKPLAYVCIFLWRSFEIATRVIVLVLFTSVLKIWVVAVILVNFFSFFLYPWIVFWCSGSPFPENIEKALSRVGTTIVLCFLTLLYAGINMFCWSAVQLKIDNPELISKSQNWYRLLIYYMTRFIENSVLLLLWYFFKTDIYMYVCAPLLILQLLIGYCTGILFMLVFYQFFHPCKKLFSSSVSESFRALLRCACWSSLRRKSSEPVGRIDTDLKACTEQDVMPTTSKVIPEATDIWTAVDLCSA

[11] = target: Hemopexin (Rattus norvegicus) (UniProt P20059); experiment: Binding affinity to hemopexin precursor in Sprague-Dawley rat heart homogenate after 15 mins by chromatographic analysis; type: tissue-based
[12] = target: Creatine kinase B-type (Rattus norvegicus) (UniProt P07335); experiment: Binding affinity to creatine kinase B-type in Sprague-Dawley rat heart homogenate after 15 mins by chromatographic analysis; type: tissue-based
Creatine kinase B-type (Rattus norvegicus), sequence (P07335 whole entry): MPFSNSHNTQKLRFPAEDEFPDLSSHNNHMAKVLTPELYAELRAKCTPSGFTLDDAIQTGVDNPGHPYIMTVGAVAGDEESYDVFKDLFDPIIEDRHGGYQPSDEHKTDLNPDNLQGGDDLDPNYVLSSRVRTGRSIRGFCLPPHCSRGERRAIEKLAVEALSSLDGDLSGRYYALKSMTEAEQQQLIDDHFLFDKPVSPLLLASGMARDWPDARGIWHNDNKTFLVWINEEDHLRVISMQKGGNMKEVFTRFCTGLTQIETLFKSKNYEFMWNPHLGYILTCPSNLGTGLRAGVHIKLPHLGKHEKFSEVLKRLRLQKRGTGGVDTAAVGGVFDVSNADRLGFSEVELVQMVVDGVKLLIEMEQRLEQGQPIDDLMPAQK

[13] = target: Trace amine-associated receptor 7b (Rattus norvegicus) (UniProt Q923X8); experiment: Binding affinity to trace amine-associated receptor 7b in Sprague-Dawley rat heart homogenate after 15 mins by chromatographic analysis; type: tissue-based
[14] = target: Interleukin-12 subunit beta (Mus musculus) (UniProt P43432); experiment: Binding affinity to mouse interleukin-12 beta chain precursor by chromatographic analysis
[15] = target: Aspartate aminotransferase, mitochondrial (Rattus norvegicus) (UniProt P00507); experiment: Binding affinity to mitochondrial aspartate aminotransferase in Sprague-Dawley rat heart homogenate after 15 mins by chromatographic analysis; type: tissue-based
[16] = target: Phosphoglycerate kinase 1 (Rattus norvegicus) (UniProt P16617); experiment: Binding affinity to Phosphoglycerate kinase 1 in Sprague-Dawley rat heart homogenate after 15 mins by chromatographic analysis; type: tissue-based
[17] = target: Norrin (Mus musculus) (UniProt P48744); experiment: Binding affinity to mouse norrin precursor by chromatographic analysis
Norrin (Mus musculus), sequence (P48744 whole entry): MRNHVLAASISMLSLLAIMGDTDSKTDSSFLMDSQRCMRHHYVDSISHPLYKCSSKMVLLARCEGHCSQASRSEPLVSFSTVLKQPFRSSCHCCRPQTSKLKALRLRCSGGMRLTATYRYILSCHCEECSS

[18] = target: 2-oxoglutarate dehydrogenase complex component E1 (Mus musculus) (UniProt Q60597); experiment: Binding affinity to mouse mitochondrial 2-oxoglutarate dehydrogenase E1 component by chromatographic analysis
[19] = target: Septin-9 (Rattus norvegicus) (UniProt Q9QZR6); experiment: Binding affinity to septin-9 in Sprague-Dawley rat heart homogenate after 15 mins by chromatographic analysis relative to pioglitazone; type: tissue-based
[20] = target: T1, Cardiotrophin-like cytokine factor 1 (Mus musculus) (UniProt Q9QZM3); experiment: Binding affinity to mouse cardiotrophin-like cytokine factor 1 precursor by chromatographic analysis relative to pioglitazone
T1 sequence (whole entry): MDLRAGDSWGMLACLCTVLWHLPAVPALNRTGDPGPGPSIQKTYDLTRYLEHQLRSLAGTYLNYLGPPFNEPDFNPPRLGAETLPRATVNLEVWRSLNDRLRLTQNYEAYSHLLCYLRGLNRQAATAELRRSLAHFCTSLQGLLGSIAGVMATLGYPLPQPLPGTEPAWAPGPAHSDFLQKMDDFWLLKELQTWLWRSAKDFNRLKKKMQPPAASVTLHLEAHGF

[21] = target: Fanconi anemia group M protein homolog (Mus musculus) (UniProt Q8BGE5); experiment: Binding affinity to mouse Fanconi anemia group M protein homologue by chromatographic analysis relative to pioglitazone
[22] = target: Selenocysteine insertion sequence-binding protein 2 (Rattus norvegicus) (UniProt Q9QX72); experiment: Binding affinity to SECIS-binding protein 2 in Sprague-Dawley rat heart homogenate after 15 mins by chromatographic analysis relative to pioglitazone; type: tissue-based
[23] = target: Rab11 family-interacting protein 4 (Mus musculus) (UniProt Q8BQP8); experiment: Binding affinity to mouse Rab11 family interacting protein 4 by chromatographic analysis relative to pioglitazone
[24] = target: Prolactin-3B1 (Rattus norvegicus) (UniProt P09321); experiment: Binding affinity to chorionic somatomammotropin hormone 2 precursor in Sprague-Dawley rat heart homogenate after 15 mins by chromatographic analysis relative to pioglitazone; type: tissue-based
[25] = target: Cyclin-dependent kinase 7 (Mus musculus) (UniProt Q03147); experiment: Binding affinity to mouse cell division protein kinase 7 by chromatographic analysis
[26] = target: Hepatocyte nuclear factor 6 (Mus musculus) (UniProt O08755); experiment: Binding affinity to mouse hepatocyte nuclear factor 6 by chromatographic analysis
[27] = target: Kinesin light chain 1 (Rattus norvegicus) (UniProt P37285); experiment: Binding affinity to Kinesin light chain 1 in Sprague-Dawley rat heart homogenate after 15 mins by chromatographic analysis; type: tissue-based
[28] = target: Malate dehydrogenase, cytoplasmic (Mus musculus) (UniProt P14152); experiment: Binding affinity to mouse cytoplasmic malate dehydrogenase by chromatographic analysis
[29] = target: Malate dehydrogenase, mitochondrial (Rattus norvegicus) (UniProt P04636); experiment: Binding affinity to mitochondrial malate dehydrogenase in Sprague-Dawley rat heart homogenate after 15 mins by chromatographic analysis; type: tissue-based

Activity [1]: Active | Activity [2]: Active | Activity [3]: Active | Activity [4]: Active | Activity [5]: Active | fold change (FC) [6]: 1.64 | fold change (FC) [7]: 5.52 | fold change (FC) [8]: 6.16 | fold change (FC) [9]: 6.46 | Activity [10]: Active | Activity [11]: Active | Activity [12]: Active | Activity [13]: Active | Activity [14]: Active | Activity [15]: Active | Activity [16]: Active | Activity [17]: inactive | Activity [18]: Active
Structure (SMILES): CCc1ccc(CCOc2ccc(CC3SC(=O)NC3=O)cc2)nc1 (stereo unspecified)

Activity [1]: Active | Activity [2]: Active | Activity [3]: Active | Activity [4]: Active | Activity [5]: Active | fold change (FC) [10]: 1.88 | fold change (FC) [19]: 2.08 | fold change (FC) [20]: 2.56 | fold change (FC) [21]: 2.94 | fold change (FC) [22]: 3.22 | fold change (FC) [23]: 3.74 | fold change (FC) [24]: 3.92 | Activity [25]: Active | Activity [26]: Active | Activity [27]: Active | Activity [17]: Active | Activity [28]: Active | Activity [29]: Active
Structure (SMILES): CN(CCOc1ccc(CC2SC(=O)NC2=O)cc1)c1ccccn1 (stereo unspecified)
